Results taken from patent US20240262807A1, “COMPOUND USED AS BCR-ABL INHIBITOR” (CHIA TAI TIANQING PHARMACEUTICAL GROUP CO., LTD., priority 2021, published 2024).

What was measured:
[1] = biological target: T1, Ba/F3-BCR-ABL1-T315I-C3 cells (Homo sapiens, UniProt P00519, T315I, cells depend on it); assay: Inhibitory effect of compounds on proliferation of BCR-ABL T315I-transfected Ba/F3 cells (CCK-8); format: cell-based; conditions: 72 h with compound, CCK-8, 5% serum, read-out: IC50 (nM) Ba/F3-BCR-ABL1 T315I
T1 construct: fused on or other part: P11274 (Breakpoint cluster region protein)
Description: Ba/F3-BCR-ABL1-T315I-C3 cells in logarithmic growth phase and good cell condition were added to a centrifuge tube and centrifuged at 1000 rpm for 5 min in a low speed centrifuge. The supernatant was discarded, and 5 mL of complete medium (RPMI 1640 basic medium+10% FBS) was added using a pipette for cell resuspension. The cells were counted using a cell counter, diluted with complete medium to a cell density of 6×10^4 cells/mL, and an equivalent amount of RPMI 1640 basic medium was added to adjust the serum concentration to 5% and the cell density to 3×10^4 cells/mL for plate seeding. The cells were seeded on a 96-well plate at 100 μL/well using a multi-channel pipette and cultured in a cell incubator at 37° C. 5% CO2 and saturated humidity. After 24 h incubation, compounds were loaded using a nanoliter pipettor, 8 concentrations (1000 nM, 250 nM, 63 nM, 16 nM, 3.9 nM, 0.98 nM, 0.24 nM, 0.061 nM) were set for each compound, and 2 replicate wells were set for each concentration; cells with no compounds added were taken as a negative control, and a plating medium with no cells added was taken as a blank control. After 72 h. […] Inhibition rate (%)=(mean value of negative control group−mean value of experimental group)/(mean value of negative control group−mean value of blank group)×100%. A dose-response curve was fitted by four-parameter analysis, with the logarithm of compound concentration serving as abscissa and inhibition rate serving as ordinate, such that ICso was calculated.

K562 cells = assay: Inhibitory effect of compounds on proliferation of K562 cells (CCK-8); format: cell-based; conditions: Homo sapiens, 72 h with compound, CCK-8, 5% serum
Description: K562 cells in logarithmic growth phase and good cell condition were added to a centrifuge tube and centrifuged at 1000 rpm for 5 min in a low speed centrifuge. […] The cells were seeded on a 96-well plate at 100 µL/well using a multi-channel pipette and cultured in a cell incubator at 37° ° C. 5% CO2 and saturated humidity. […] Inhibition rate (%)=(mean value of negative control group−mean value of experimental group)/(mean value of negative control group−mean value of blank group)×100%. A dose-response curve was fitted by four-parameter analysis, with the logarithm of compound concentration serving as abscissa and inhibition rate serving as ordinate, such that IC50 was calculated.

| Compound | GI50 [1] [nM] | IC50 (K562 cells) [nM] |
| --- | --- | --- |
| O=C(Nc1ccc(OC(F)(F)Cl)cc1)c1cnc(N2CCOCC2)c(-c2cc3c([nH]2)C(=O)NC3)c1 [Compound 96] | 0.59 | 4.7 |
| CN1CCc2cc(-c3cc(C(=O)Nc4ccc(OC(F)(F)Cl)cc4)cnc3N3CCOCC3)[nH]c2C1=O [Compound 115] | 3 | 5.5 |
| Cn1ncc(-c2cc(C(=O)Nc3ccc(OC(F)(F)Cl)cc3)cnc2N2CC3CC(C2)O3)cc1=O [Compound 83] | 4.1 | 3.2 |
| Cn1ccc(-c2cc(C(=O)Nc3ccc(OC(F)(F)Cl)cc3)cnc2N2C[C@H](O)[C@@H](F)C2)cc1=O [Compound 27] | 67 | 18 |
| CN1Cc2cc(-c3cc(C(=O)Nc4ccc(OC(F)(F)Cl)cc4)cnc3N3CC(O)C3)[nH]c2C1=O [Compound 112] | 0.29 | 0.54 |
| CO[C@@H]1CCN(c2ncc(C(=O)Nc3ccc(OC(F)(F)Cl)cc3)cc2-c2cnn3c2COCC3)C1 [Compound 41] | 3.4 | 2.1 |
| Cn1cnc(-c2cc(C(=O)Nc3ccc(OC(F)(F)Cl)cc3)cnc2N2C3CCC2COC3)cc1=O [Compound 49] | – | 10 |
| O=C(Nc1ccc(OC(F)(F)Cl)cc1)c1cnc(N2C3CCC2COC3)c(-c2cnn3c2COCC3)c1 [Compound 37] | 16 | 7.8 |
| O=C(Nc1ccc(OC(F)(F)Cl)cc1)c1cnc(N2C[C@H]3C[C@@H]2CO3)c(-c2cnn3c2COCC3)c1 [Compound 38] | 5.7 | – |
| O=C(Nc1ccc(OC(F)(F)Cl)cc1)c1ccc(N2CC(O)C2)c(-c2cc3c([nH]2)C(=O)N(C2CC2)C3)c1 [Compound 120] | 0.084 | 0.21 |
| O=C(Nc1ccc(OC(F)(F)Cl)cc1)c1cnc(N2CCCC2)c(-c2cnn3c2COCC3)c1 [Compound 42] | 3.5 | 2.3 |
| Cn1ccc(-c2cc(C(=O)Nc3ccc(OC(F)(F)Cl)cc3)cnc2N2CC[C@H](Cl)C2)cc1=O [Compound 4] | 21 | 16 |
| CN1Cc2nc(-c3cc(C(=O)Nc4ccc(OC(F)(F)Cl)cc4)cnc3N3CC[C@@H](O)C3)[nH]c2C1=O [Compound 95] | – | 39 |
| Cn1ccc(-c2cc(C(=O)Nc3ccc(OC(F)(F)Cl)cc3)cnc2N2C3COCC2C3)cc1=O [Compound 20] | 38 | 31 |
| Cn1ccc(-c2cc(C(=O)Nc3ccc(OC(F)(F)Cl)cc3)cnc2N2CC[C@H](C#N)C2)cc1=O [Compound 30] | 18 | 10 |
| O=C(Nc1ccc(OC(F)(F)Cl)cc1)c1cnc(N2C3COCC2C3)c(-c2cnn3c2COCC3)c1 [Compound 92] | – | 15 |
| CCn1ccc(-c2cc(C(=O)Nc3ccc(OC(F)(F)Cl)cc3)cnc2N2CCOCC2)cc1=O [Compound 9] | – | 9.3 |
| Cn1ncc(-c2cc(C(=O)Nc3ccc(OC(F)(F)Cl)cc3)cnc2N2C[C@H]3C[C@@H]2CO3)cc1=O [Compound 88] | – | 10 |
| CN1CCc2oc(-c3cc(C(=O)Nc4ccc(OC(F)(F)Cl)cc4)cnc3N3CC[C@@H](O)C3)cc2C1=O [Compound 101] | – | 10 |
| CN(C)c1ncc(C(=O)Nc2ccc(OC(F)(F)Cl)cc2)cc1-c1cc(=O)n(CC2CCOCC2)cn1 [Compound 78] | – | 46 |
| Cn1cnc(-c2cc(C(=O)Nc3ccc(OC(F)(F)Cl)cc3)cnc2-c2ccn[nH]2)cc1=O [Compound 69] | – | 47 |
| Cn1cnc(-c2cc(C(=O)Nc3ccc(OC(F)(F)Cl)cc3)cnc2N2CC3CC(C2)O3)cc1=O [Compound 52] | – | 6.1 |
| O=C(Nc1ccc(OC(F)(F)Cl)cc1)c1cnc(N2C[C@@H]3C[C@H]2CO3)c(-c2cnn3c2COCC3)c1 [Compound 40] | 7.4 | – |
| Cn1cc(-c2cc(C(=O)Nc3ccc(OC(F)(F)Cl)cc3)cnc2N2CCOCC2)ccc1=O [Compound 84] | – | 45 |
| O=C(Nc1ccc(OC(F)(F)Cl)cc1)c1cnc(N2CC[C@@H](O)C2)c(-c2cc3nccn3[nH]2)c1 [Compound 102] | 76 | – |
| CON(C)c1ncc(C(=O)Nc2ccc(OC(F)(F)Cl)cc2)cc1-c1cc(=O)n(C)cn1 [Compound 81] | – | 10 |

More lines, now with the values ahead:

| GI50 [1] [nM] | IC50 (K562 cells) [nM] | Compound |
| --- | --- | --- |
| 12 | 18 | C[C@@H]1COCCN1c1ncc(C(=O)Nc2ccc(OC(F)(F)Cl)cc2)cc1-c1cc(=O)n(C)cn1 [Compound 56] |
| 26 | 26 | Cn1cnc(-c2cc(C(=O)Nc3ccc(OC(F)(F)Cl)cc3)cnc2N2CC[C@@H](O)C2)cc1=O [Compound 46] |
| 20 | – | Cn1ccc(-c2cc(C(=O)Nc3ccc(OC(F)(F)Cl)cc3)cnc2N2C[C@H]3C[C@@H]2CO3)cc1=O [Compound 21] |
| 9.1 | 4.9 | Cn1cc(Cl)c(-c2cc(C(=O)Nc3ccc(OC(F)(F)Cl)cc3)cnc2N2CCOCC2)cc1=O [Compound 33] |
| 6 | 5.2 | CO[C@@H]1CCN(c2ncc(C(=O)Nc3ccc(OC(F)(F)Cl)cc3)cc2-c2cc(=O)n(C)cn2)C1 [Compound 63] |
| – | 95 | COCCOc1ncc(C(=O)Nc2ccc(OC(F)(F)Cl)cc2)cc1-c1cc(=O)n(C)cn1 [Compound 70] |
| 2.7 | 3 | Cn1cnc(-c2cc(C(=O)Nc3ccc(OC(F)(F)Cl)cc3)cnc2N2CC[C@@H](F)C2)cc1=O [Compound 53] |
| 4 | 6.3 | Cn1cncc(-c2cc(C(=O)Nc3ccc(OC(F)(F)Cl)cc3)cnc2N2CCOCC2)c1=O [Compound 60] |
| – | 12 | C[C@@H]1COCCN1c1ncc(C(=O)Nc2ccc(OC(F)(F)Cl)cc2)cc1-c1cnn2c1COCC2 [Compound 93] |
| – | 17 | Cn1cnc(-c2cc(C(=O)Nc3ccc(OC(F)(F)Cl)cc3)cnc2N2C[C@@H](F)[C@H](F)C2)cc1=O [Compound 79] |
| 35 | – | Cn1ccc(-c2cc(C(=O)Nc3ccc(OC(F)(F)Cl)cc3)cnc2N2C[C@@H]3C[C@H]2CO3)cc1=O [Compound 22] |
| – | 10 | Cn1cnc(-c2cc(C(=O)Nc3ccc(OC(F)(F)Cl)cc3)cnc2N2CC3CCC(C2)O3)cc1=O [Compound 50] |
| – | 57 | Cn1cc(-c2cc(C(=O)Nc3ccc(OC(F)(F)Cl)cc3)cnc2N2CCOCC2)ncc1=O [Compound 82] |
| – | 13 | Cn1cnc(-c2cc(C(=O)Nc3ccc(OC(F)(F)Cl)cc3)cnc2N2C[C@H]3C[C@@H]2CO3)cc1=O [Compound 51] |
| – | 43 | COc1ncc(C(=O)Nc2ccc(OC(F)(F)Cl)cc2)cc1-c1cc(=O)n(C)cn1 [Compound 71] |
| – | 14 | Cn1cnc(-c2cc(C(=O)Nc3ccc(OC(F)(F)Cl)cc3)cnc2N2CCCO2)cc1=O [Compound 80] |
| – | 59 | C[C@H]1COCCN1c1ncc(C(=O)Nc2ccc(OC(F)(F)Cl)cc2)cc1-c1cc(=O)n(C)cn1 [Compound 57] |
| – | 31 | Cn1cnc(-c2cc(C(=O)Nc3ccc(OC(F)(F)Cl)cc3)cnc2-n2ccnc2)cc1=O [Compound 66] |
| – | 26 | COCCNc1ncc(C(=O)Nc2ccc(OC(F)(F)Cl)cc2)cc1-c1cc(=O)n(C)cn1 [Compound 55] |
| – | 13 | Cn1cnc(-c2cc(C(=O)Nc3ccc(OC(F)(F)Cl)cc3)cnc2N2CC(O)C2)cc1=O [Compound 48] |
| – | 14 | Cn1nccc1-c1ncc(C(=O)Nc2ccc(OC(F)(F)Cl)cc2)cc1-c1cc(=O)n(C)cn1 [Compound 73] |
| – | 13 | Cn1cnc(-c2cc(C(=O)Nc3ccc(OC(F)(F)Cl)cc3)cnc2-n2cccn2)cc1=O [Compound 77] |
| – | 18 | CNc1ncc(C(=O)Nc2ccc(OC(F)(F)Cl)cc2)cc1-c1cc(=O)n(C)cn1 [Compound 62] |
